Assay [1] has as its target T1, Alpha-2A adrenergic receptor (Homo sapiens, UniProt P08913). Note: in other assays of this panel Not Active means under 50% inhibition at 10 µM.
T1 sequence (P08913 whole entry): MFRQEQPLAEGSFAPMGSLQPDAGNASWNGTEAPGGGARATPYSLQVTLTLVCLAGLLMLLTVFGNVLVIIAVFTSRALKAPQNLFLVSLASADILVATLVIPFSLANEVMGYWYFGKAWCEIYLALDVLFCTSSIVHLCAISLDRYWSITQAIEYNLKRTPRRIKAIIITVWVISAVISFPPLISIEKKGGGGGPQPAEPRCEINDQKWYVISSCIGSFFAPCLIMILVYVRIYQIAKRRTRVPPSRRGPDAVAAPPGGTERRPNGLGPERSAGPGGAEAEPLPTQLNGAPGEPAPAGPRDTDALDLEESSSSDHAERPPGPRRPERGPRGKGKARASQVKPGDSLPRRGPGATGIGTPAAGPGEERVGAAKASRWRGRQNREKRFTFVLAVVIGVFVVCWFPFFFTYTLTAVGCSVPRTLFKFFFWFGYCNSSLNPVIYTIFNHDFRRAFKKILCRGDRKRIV
It is filed as cell membranes, Sf9, Membrane. The following applies: for IC50: sf9.

Assay [2] deals with T2, Type-2 angiotensin II receptor (Homo sapiens, UniProt P50052).
T2 sequence (P50052 whole entry): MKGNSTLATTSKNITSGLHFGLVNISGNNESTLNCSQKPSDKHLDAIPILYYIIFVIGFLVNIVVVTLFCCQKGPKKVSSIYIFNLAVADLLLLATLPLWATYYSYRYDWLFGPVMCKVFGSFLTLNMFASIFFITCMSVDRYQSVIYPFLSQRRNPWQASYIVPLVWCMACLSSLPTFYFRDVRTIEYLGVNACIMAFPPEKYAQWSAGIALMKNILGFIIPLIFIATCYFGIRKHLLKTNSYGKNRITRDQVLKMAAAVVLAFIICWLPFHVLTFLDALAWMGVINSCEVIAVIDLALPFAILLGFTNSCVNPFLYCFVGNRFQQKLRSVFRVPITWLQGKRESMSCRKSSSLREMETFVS
The experiment in a line: biochemical. The assay is classed as cell-based, CHO-K1. The following applies: cho-k1.

The nature of assay [3]: DRUGMATRIX: Atrial Natriuretic Factor (ANF) radioligand binding (ligand: [125I] ANF (rat)). The assay is classed as cell membranes, Cavia porcellus, Dunkin-Hartley, Adrenal gland, Membrane. Conditions: Not Active = under 50% inhibition at 10 µM.
In assay [4] the target is Vascular endothelial growth factor receptor 1 (Homo sapiens, UniProt P17948). It is filed as cell-based. Conditions: huvec. Note: in other assays of this panel Not Active means under 50% inhibition at 10 µM.
Sequence of Vascular endothelial growth factor receptor 1 (P17948 whole entry): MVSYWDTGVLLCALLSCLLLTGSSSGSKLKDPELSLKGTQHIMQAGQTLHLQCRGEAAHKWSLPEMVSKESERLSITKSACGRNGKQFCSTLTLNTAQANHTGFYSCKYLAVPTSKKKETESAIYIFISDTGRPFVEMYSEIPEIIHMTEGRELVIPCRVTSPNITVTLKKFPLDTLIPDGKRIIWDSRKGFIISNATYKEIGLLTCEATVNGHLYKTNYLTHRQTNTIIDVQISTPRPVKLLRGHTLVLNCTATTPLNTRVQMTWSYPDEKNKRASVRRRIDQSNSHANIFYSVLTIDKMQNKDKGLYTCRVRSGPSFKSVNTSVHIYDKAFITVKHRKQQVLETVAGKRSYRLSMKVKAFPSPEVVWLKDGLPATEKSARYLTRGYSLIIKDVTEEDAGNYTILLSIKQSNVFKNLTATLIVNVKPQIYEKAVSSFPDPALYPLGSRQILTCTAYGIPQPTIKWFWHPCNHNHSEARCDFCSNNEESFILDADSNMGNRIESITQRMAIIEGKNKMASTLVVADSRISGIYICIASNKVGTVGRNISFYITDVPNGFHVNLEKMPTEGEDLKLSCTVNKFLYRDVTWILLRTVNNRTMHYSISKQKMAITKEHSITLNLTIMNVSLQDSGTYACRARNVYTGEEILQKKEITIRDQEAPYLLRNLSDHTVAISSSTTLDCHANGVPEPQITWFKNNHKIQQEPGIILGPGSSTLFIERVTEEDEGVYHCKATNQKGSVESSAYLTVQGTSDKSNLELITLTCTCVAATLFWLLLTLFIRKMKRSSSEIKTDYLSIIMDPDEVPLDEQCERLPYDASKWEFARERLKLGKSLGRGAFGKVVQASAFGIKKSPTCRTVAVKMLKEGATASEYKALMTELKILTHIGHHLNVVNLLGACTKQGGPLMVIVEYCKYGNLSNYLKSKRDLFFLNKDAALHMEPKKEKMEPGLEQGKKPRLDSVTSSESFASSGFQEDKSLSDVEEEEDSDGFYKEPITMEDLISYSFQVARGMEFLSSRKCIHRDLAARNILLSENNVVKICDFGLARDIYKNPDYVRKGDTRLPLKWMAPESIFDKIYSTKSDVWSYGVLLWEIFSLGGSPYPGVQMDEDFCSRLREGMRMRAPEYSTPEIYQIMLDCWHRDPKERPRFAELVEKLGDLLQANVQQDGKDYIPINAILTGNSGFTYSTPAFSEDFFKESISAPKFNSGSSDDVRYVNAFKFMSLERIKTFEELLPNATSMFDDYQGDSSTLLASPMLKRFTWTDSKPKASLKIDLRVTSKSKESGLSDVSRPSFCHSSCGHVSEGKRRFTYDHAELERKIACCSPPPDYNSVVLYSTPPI
Another assay addresses Vasopressin V1a receptor (Homo sapiens, UniProt P37288). It is filed as cell membranes, Membrane. Conditions: hek293.
The nature of assay [5]: DRUGMATRIX: Glutamate, Kainate radioligand binding (ligand: [3H] Kainic acid). It is filed as cell membranes, Rattus norvegicus, Wistar, Brain, Membrane. Conditions: Not Active = under 50% inhibition at 10 µM.
In assay [6] the target is T3, Nitric oxide synthase, inducible (Mus musculus, UniProt P29477).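 Note: inhibition of iNOS enzyme activity measured with L-arginine as substrate; in other assays of this panel Not Active means under 50% inhibition at 10 µM.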
T3 sequence (P29477 whole entry): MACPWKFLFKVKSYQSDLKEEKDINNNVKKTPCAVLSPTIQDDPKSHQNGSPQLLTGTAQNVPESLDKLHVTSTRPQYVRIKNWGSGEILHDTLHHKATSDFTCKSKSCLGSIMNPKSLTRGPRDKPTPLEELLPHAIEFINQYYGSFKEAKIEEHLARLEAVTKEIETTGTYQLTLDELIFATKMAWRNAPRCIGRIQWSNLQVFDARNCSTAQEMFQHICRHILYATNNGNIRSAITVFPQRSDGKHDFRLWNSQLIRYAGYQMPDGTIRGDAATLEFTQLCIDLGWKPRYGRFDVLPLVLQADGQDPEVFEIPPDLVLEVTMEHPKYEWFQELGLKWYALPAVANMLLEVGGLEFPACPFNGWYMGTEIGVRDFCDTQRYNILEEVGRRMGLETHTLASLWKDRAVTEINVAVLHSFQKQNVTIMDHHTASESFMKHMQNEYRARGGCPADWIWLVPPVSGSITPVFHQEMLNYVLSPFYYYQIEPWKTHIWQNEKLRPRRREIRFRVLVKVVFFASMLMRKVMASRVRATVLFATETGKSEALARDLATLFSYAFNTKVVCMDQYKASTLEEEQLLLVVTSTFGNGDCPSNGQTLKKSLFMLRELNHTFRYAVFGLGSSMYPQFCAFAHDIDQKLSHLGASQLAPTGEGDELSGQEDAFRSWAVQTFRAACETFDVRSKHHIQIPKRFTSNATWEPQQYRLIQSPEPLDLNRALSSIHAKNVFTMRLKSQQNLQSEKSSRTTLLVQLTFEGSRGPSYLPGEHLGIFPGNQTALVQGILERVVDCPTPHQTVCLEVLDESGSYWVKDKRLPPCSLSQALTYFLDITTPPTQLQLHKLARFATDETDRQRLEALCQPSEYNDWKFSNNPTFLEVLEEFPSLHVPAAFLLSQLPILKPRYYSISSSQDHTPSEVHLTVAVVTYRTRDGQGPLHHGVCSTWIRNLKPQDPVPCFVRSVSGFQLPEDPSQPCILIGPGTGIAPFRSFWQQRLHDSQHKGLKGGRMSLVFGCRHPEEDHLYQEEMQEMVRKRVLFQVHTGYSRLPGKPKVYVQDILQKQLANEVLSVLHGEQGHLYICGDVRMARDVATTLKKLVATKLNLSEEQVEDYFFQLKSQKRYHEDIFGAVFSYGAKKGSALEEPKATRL
On the set-up: species or system Escherichia coli.

The nature of assay [7]: DRUGMATRIX: Phorbol Ester radioligand binding (ligand: [3H] PDBu). It is filed as cell membranes, Mus musculus, ICR, Brain, Membrane. The following applies: Not Active = under 50% inhibition at 10 µM.

Our source for the IC50 and Ki values is ChEMBL document CHEMBL1909046, “DrugMatrix in vitro pharmacology data”.

The structures appear in SMILES notation. pIC50, pKi: −log10 of the molar value.

Sequence of Vasopressin V1a receptor (P37288 whole entry): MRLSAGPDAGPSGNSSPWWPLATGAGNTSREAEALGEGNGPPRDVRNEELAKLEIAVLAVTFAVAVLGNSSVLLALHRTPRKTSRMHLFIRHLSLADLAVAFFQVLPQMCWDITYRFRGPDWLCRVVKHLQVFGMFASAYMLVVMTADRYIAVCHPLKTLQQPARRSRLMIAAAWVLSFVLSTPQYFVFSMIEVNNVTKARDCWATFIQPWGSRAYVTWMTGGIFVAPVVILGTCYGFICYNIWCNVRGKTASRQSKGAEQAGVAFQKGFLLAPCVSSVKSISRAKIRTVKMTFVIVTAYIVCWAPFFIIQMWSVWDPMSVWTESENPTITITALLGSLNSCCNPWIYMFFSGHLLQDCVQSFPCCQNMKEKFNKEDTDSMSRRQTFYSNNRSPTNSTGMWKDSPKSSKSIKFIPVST

Regarding `CCOc1nc2cccc(C(=O)O)c2n1Cc1ccc(-c2ccccc2-c2nnn[nH]2)cc1`, the IC50 entry (in assay [1]; in assay [2]; in assay [3]; in assay [4]; against Vasopressin V1a receptor; in assay [5]) was “Not Active” in each case. In addition, the IC50 entry in assay [6] and in assay [7] was “Not Active” throughout. For the same molecule, the Ki result in assay [3], in assay [5] and in assay [7] was “Not Active” in each case.
As to `O=C(O)CCCc1cccs1`, the IC50 result (in assay [1]; in assay [2]; in assay [3]; in assay [4]; against Vasopressin V1a receptor; in assay [5]) was “Not Active” throughout. Moreover, the IC50 result in assay [6] and in assay [7] was “Not Active” in each case. Moreover, the Ki result in assay [3], in assay [5] and in assay [7] was “Not Active” throughout.
`COc1ccccc1N`: the IC50 result (in assay [1]; in assay [2]; in assay [3]; in assay [4]; at Vasopressin V1a receptor; in assay [5]) was “Not Active” each time. In addition, the IC50 entry in assay [6] and in assay [7] was “Not Active” each time. For the same molecule, the Ki result in assay [3], in assay [5] and in assay [7] was “Not Active” each time.
On to `O=C(c1ccccc1F)N1CCC(Cc2ccccc2)CC1`, for which the IC50 result (in assay [1]; in assay [2]; in assay [3]; in assay [4]; at Vasopressin V1a receptor; in assay [5]) was “Not Active” in each case. In addition, the IC50 entry in assay [6] and in assay [7] was “Not Active” throughout. Further, the Ki entry in assay [3], in assay [5] and in assay [7] was “Not Active” in each case.
`Cc1c(O)cccc1C(=O)N[C@@H](CSc1ccccc1)[C@H](O)CN1C[C@H]2CCCC[C@H]2C[C@H]1C(=O)NC(C)(C)C`: the IC50 entry (in assay [1]; in assay [2]; in assay [3]; in assay [4]; against Vasopressin V1a receptor; in assay [5]) was “Not Active” throughout. Also, the IC50 result in assay [6] and in assay [7] was “Not Active” in each case. The Ki result in assay [3], in assay [5] and in assay [7] was “Not Active” in each case.
Consider `CC(O)COC[C@H]1O[C@@H]2O[C@H]3[C@H](O)[C@@H](O)[C@@H](O[C@H]4[C@H](O)[C@@H](O)[C@@H](O[C@H]5[C@H](O)[C@@H](O)[C@@H](O[C@H]6[C@H](O)[C@@H](O)[C@@H](O[C@H]7[C@H](O)[C@@H](O)[C@@H](O[C@H]8[C@H](O)[C@@H](O)[C@@H](O[C@H]1[C@H](O)[C@H]2O)O[C@@H]8COCC(C)O)O[C@@H]7COCC(C)O)O[C@@H]6COCC(C)O)O[C@@H]5COCC(C)O)O[C@@H]4COCC(C)O)O[C@@H]3COCC(C)O` (stereo partly drawn) [2-HYDROXYPROPYL-BETA-CYCLODEXTRIN], for which the IC50 result (in assay [1]; in assay [2]; in assay [3]; in assay [4]; against Vasopressin V1a receptor; in assay [5]) was “Not Active” in each case. The IC50 result in assay [6] and in assay [7] was “Not Active” throughout. Besides, the Ki entry in assay [3], in assay [5] and in assay [7] was “Not Active” throughout.
With `NC(=O)c1cccc(N)c1` [3-AMINOBENZAMIDE], the IC50 entry (in assay [1]; in assay [2]; in assay [3]; in assay [4]; at Vasopressin V1a receptor; in assay [5]) was “Not Active” throughout. The IC50 entry in assay [6] and in assay [7] was “Not Active” each time. In addition, the Ki result in assay [3], in assay [5] and in assay [7] was “Not Active” each time.
For the molecule `C[C@H]1O[C@H](O[C@H]2[C@H](O)[C@@H](O)[C@@H](O[C@H]3[C@H](O)[C@@H](O)C(O)O[C@@H]3CO)O[C@@H]2CO)[C@H](O)[C@@H](O)[C@@H]1N[C@H]1C=C(CO)[C@@H](O)[C@H](O)[C@H]1O` (stereo partly drawn) [ACARBOSE], the IC50 entry (in assay [1]; in assay [2]; in assay [3]; in assay [4]; at Vasopressin V1a receptor; in assay [5]) was “Not Active” each time. Besides, the IC50 result in assay [6] and in assay [7] was “Not Active” throughout. Also, the Ki entry in assay [3], in assay [5] and in assay [7] was “Not Active” each time.
Consider `CC[C@H]1[C@@H]2C[C@H]3[C@@H]4N(C)c5ccccc5[C@]45C[C@@H]([C@@H]2[C@H]5O)N3[C@@H]1O` [AJMALINE], for which the IC50 entry (in assay [1]; in assay [2]; in assay [3]; in assay [4]; on Vasopressin V1a receptor; in assay [5]) was “Not Active” in each case. The IC50 entry in assay [6] and in assay [7] was “Not Active” throughout. The Ki entry in assay [3], in assay [5] and in assay [7] was “Not Active” throughout.
Regarding `NC12CC3CC(CC(C3)C1)C2` [AMANTADINE], the IC50 result (in assay [1]; in assay [2]; in assay [3]; in assay [4]; on Vasopressin V1a receptor; in assay [5]) was “Not Active” each time. In addition, the IC50 entry in assay [6] and in assay [7] was “Not Active” each time. Besides, the Ki entry in assay [3], in assay [5] and in assay [7] was “Not Active” each time.
Turning to `NCCCNCCSP(=O)(O)O` [AMIFOSTINE], the IC50 result (in assay [1]; in assay [2]; in assay [3]; in assay [4]; on Vasopressin V1a receptor; in assay [5]) was “Not Active” each time. The IC50 entry in assay [6] and in assay [7] was “Not Active” each time. Moreover, the Ki result in assay [3], in assay [5] and in assay [7] was “Not Active” throughout.
A word on the pIC50: it is −log10 of the IC50, conventionally taken in molar units. One may read the pKi as −log10 of the Ki, conventionally taken in molar units. Turning to `CN(C)CCC=C1c2ccccc2CCc2ccccc21` [AMITRIPTYLINE], the pIC50 in assay [1] (read-out: IC50) was 6.45. Further, the pKi in assay [1] (read-out: Ki) is 6.88. For the same molecule, the IC50 result (in assay [2]; in assay [3]; in assay [4]; at Vasopressin V1a receptor; in assay [5]; in assay [6]) was “Not Active” in each case. Further, the IC50 result in assay [7] is given as “Not Active”. In addition, the Ki entry in assay [3], in assay [5] and in assay [7] was “Not Active” in each case.
